We go through 7 molecules from patent US6906188B2, “Method for synthesizing epothilones and epothilone analogs” (State of Oregon acting by and through the State Board of …, priority 2001, dated 2005).

The subject of series [1] is MCF-7 (breast). Kind of series: Antiproliferative activity (growth inhibition), MCF-7 cells. To be noted: Homo sapiens. It counts as cell-based. The protocol: (§1) The antiproliferative activity of cis 9,10-dehydroepothilone D and trans 9,10-dehydroepothilone D was assessed in vitro using a panel of human cancer cell lines.
Series [2] concerns the target porcine tubulin (Sus scrofa, UniProt P02554). Briefly: Induction of porcine tubulin polymerization. The series is classed as biochemical.
Series [3] deals with HCT-116 (colon). Kind of series: Antiproliferative activity (growth inhibition), HCT-116 cells. It counts as cell-based. To be noted: Homo sapiens. As to the method:
as §1

Series [4] has as its system panel of human cancer cell lines. Kind of series: Antiproliferative activity across the cell line panel. The series is classed as cell-based. An excerpt:
Known epothilones have significant biological activity.

In series [5] the test system is KB-8511 (Epidermoid), Pgp-overexpressing sub-line of KB-31. Briefly: Antiproliferative activity (growth inhibition), KB-8511 cells. To be noted: Homo sapiens. The protocol: as §1
The subject of series [6] is KB-31 (Epidermoid). Kind of series: Antiproliferative activity (growth inhibition), KB-31 cells. To be noted: Homo sapiens. It counts as cell-based. The protocol:
as §1

Series [7] has as its system PC3-M (prostate). Briefly: Antiproliferative activity (growth inhibition), PC3-M cells. The series is classed as cell-based. To be noted: Homo sapiens, PC-3M, read-out: IC50 PC3-M (prostate). As to the method: as §1
Series [8] has as its system A549 (lung). Kind of series: Antiproliferative activity (growth inhibition), A549 cells. To be noted: Homo sapiens. It counts as cell-based. The protocol: as §1
The test system of series [9] is Pgp-expressing MDR neuroblastoma cell line (SK-N SH). To be noted: cited from earlier work.
In series [10] the test system is tubulin. Conditions: Merck comparison with Taxol; cited from earlier work.
In series [11] the test system is IFN-γ-treated murine-macrophage. Conditions: IFN-γ-treated murine macrophages; cited from earlier work.
The test system of series [12] is subcutaneous implantations of tumor tissues. To be noted: mice, subcutaneous tumor implants, Sloan Kettering; cited from earlier work.
For series [13], the system named is Potorous tridactylis kidney epithelial (PtK2) cells. Conditions: indirect immunofluorescence; cited from earlier work.
[14] abbreviates: MCF7, mean of three independent experiments, read-out: IC50 MCF-7 (breast).
The mark [15] stands for this setting: 5 μM compound, relative to the effect of Epothilone B at 25 μM defined as 100%.
The mark [16] stands for this setting: HCT-116, mean of three independent experiments, read-out: IC50 HCT-116 (colon).
[17] abbreviates: antiproliferative potency, cell line panel of Table 1.
[18] abbreviates: KB 3-1, read-out: IC50 KB-8511 (Epidermoid), Table 1, Pgp-overexpressing sub-line, mean of three independent experiments.
Setting [19] is: KB 3-1, Table 1, mean of three independent experiments, read-out: IC50 KB-31 (Epidermoid).
Where [20] appears, read: mean of three independent experiments.
[21] abbreviates: A549, mean of three independent experiments, read-out: IC50 A549 (lung).
Where [22] appears, read: Table 2, under the conditions used for Table 1, unit not given.
[23] abbreviates: KB 3-1, read-out: IC50 KB-8511 (Epidermoid).
The mark [24] stands for this setting: KB 3-1, Table 2, under the conditions used for Table 1 (there nM), unit inferred, read-out: IC50 KB-31 (Epidermoid).
Setting [25] is: MCF7, read-out: IC50 MCF-7 (breast).
Where [26] appears, read: HCT-116, read-out: IC50 HCT-116 (colon).
[27] abbreviates: KB 3-1, read-out: IC50 KB-8511 (Epidermoid), Table 2, under the conditions used for Table 1 (there nM), unit inferred.
[28] abbreviates: KB 3-1, read-out: IC50 KB-31 (Epidermoid), Table 2, under the conditions used for Table 1 (there nM), unit inferred.
Where [29] appears, read: A549, read-out: IC50 A549 (lung).

Like-named read-outs stand apart in the source and are kept apart here.

Chain of porcine tubulin (P02554 whole entry): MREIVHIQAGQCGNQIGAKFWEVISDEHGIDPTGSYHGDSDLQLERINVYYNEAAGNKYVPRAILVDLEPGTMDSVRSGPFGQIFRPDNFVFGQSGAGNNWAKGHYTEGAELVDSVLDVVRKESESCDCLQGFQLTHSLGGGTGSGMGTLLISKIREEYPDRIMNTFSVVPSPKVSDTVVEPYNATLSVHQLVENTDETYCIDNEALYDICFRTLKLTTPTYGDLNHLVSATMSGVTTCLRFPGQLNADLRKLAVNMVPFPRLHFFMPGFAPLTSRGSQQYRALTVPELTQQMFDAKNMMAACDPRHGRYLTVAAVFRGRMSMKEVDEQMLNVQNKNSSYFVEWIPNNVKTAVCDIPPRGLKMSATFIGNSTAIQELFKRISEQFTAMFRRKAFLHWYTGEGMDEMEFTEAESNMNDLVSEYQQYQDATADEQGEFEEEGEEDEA
Chain of porcine tubulin (P02550 whole entry partner): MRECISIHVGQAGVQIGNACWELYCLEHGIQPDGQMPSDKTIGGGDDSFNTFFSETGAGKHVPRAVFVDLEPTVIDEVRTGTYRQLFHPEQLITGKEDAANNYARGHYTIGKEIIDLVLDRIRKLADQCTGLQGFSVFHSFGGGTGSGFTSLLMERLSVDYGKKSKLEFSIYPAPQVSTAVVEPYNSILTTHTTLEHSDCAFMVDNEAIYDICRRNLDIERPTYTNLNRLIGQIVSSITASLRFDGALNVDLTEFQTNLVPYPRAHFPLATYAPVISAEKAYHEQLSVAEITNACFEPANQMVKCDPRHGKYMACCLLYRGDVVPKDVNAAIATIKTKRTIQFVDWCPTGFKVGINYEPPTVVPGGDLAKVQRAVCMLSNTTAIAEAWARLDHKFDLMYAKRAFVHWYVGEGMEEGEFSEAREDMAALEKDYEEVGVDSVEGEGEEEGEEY

In the case of `C/C1=C/C[C@@H](/C(C)=C/c2csc(C)n2)OC(=O)C[C@H](O)C(C)(C)C(=O)[C@H](C)[C@@H](O)[C@@H](C)/C=C\C1` [9,10-cis-Dehydroepothilone D, 9,10-dehydrodes-epoxyepothilone B], the IC50 (as a rule, the concentration needed to halve the response being measured) turned out to be 72 nM in series [1] (setting [14]); 102 nM in series [3] (setting [16]); 28.5 nM in series [5] (setting [18]); 59.4 nM in series [6] (setting [19]); 146 nM in series [7] (setting [20]); 109 nM in [8] (setting [21]). The “Tubulin Polym.” value in series [2] (setting [15]) was 56%. The “fold less potent than epothilone B” value in series [4] (setting [17]) was 330- to 670 fold. Further, in series [4] (setting [17]), the “fold less potent than natural epothilone D” value is 20- to 30 fold.

In the case of `C/C1=C/C[C@@H](/C(C)=C/c2csc(C)n2)OC(=O)C[C@H](O)C(C)(C)C(=O)[C@H](C)[C@@H](O)[C@@H](C)C(=O)OC1` [Bislactone], in series [2] (setting [22]), the “Tubulin Polym.” value was determined as 21.4. Moreover, the values for the half-inhibitory concentration (IC50) in series [5] (setting [23]) and in series [6] (setting [24]) were 25.2 nM and 25.5 nM, respectively.

Regarding `C/C(=C\c1csc(C)n1)[C@@H]1CC2O[C@@H]2CCC[C@H](C)[C@H](O)[C@@H](C)C(=O)C(C)(C)[C@@H](O)CC(=O)O1` (stereo partly drawn) [Epothilone A], the “activity against Pgp-expressing MDR neuroblastoma cell line” value in series [9] is listed as “active”. In addition, in [10], the “potency as tubulin polymerization agent (rank order)” value is on record as “epothilone B>epothilone A>Taxol”.

As for `C/C(=C\c1csc(C)n1)[C@@H]1C[C@@H]2O[C@]2(C)CCC[C@H](C)[C@H](O)[C@@H](C)C(=O)C(C)(C)[C@@H](O)CC(=O)O1` [Epothilone B], the IC50 in [1] (setting [25]) turned out to be 0.29 nM; in series [3] (setting [26]) it was 0.34 nM; in [5] (setting [18]), 0.16 nM; in series [5] (setting [27]) it was 0.15 nM; in [6] (setting [28]), 0.24 nM; in [7], 0.32 nM. In addition, in series [8] (setting [29]), the IC50 amounted to 0.16 nM. Besides, the results for the “Tubulin Polym.” value in series [2] (setting [15]) and in series [2] (setting [22]) were 95% and 81.4, respectively. Also, the “macrophage stimulatory activity as measured by nitric oxide release” value in series [11] is listed as “lacked any IFN-γ-treated murine-macrophage stimulatory activity”. The “in vivo antitumor effect compared with Taxol” value in series [12] is listed as “superiority”. Moreover, the “formation of microtubule bundles” value in series [13] is reported as “most active, inducing extensive formation of microtubule bundles”. The “potency as tubulin polymerization agent (rank order)” value in [10] is “epothilone B>epothilone A>Taxol”.

Take `C/C1=C/C[C@@H](/C(C)=C/c2csc(C)n2)OC(=O)C[C@H](O)C(C)(C)C(=O)[C@H](C)[C@@H](O)[C@@H](C)CCC1` [Epothilone D]: the IC50 in series [1] (setting [25]) worked out at 2.31 nM; in [3] (setting [26]), 4.48 nM; in series [5] (setting [23]) it was 1 nM; in series [6] (KB 3-1, read-out: IC50 KB-31 (Epidermoid), Table 1, mean of three independent experiments), 1.94 nM; in series [6] (setting [28]) it was 1.94 nM; in series [7] it was 7.4 nM. In series [8] (setting [29]), the IC50 was found to be 4.62 nM. In addition, the “Tubulin Polym.” value in series [2] (setting [15]) is recorded as 88%; in [2] (setting [22]) it was 62.3.

In the case of `CC(=O)O[C@H]1C(=O)[C@@]2(C)[C@H]([C@H](OC(=O)c3ccccc3)[C@]3(O)C[C@H](OC(=O)[C@H](O)[C@@H](NC(=O)c4ccccc4)c4ccccc4)C(C)=C1C3(C)C)[C@]1(OC(C)=O)CO[C@@H]1C[C@@H]2O` [Paclitaxel (Taxol), Paclitaxel], the IC50 in series [1] (setting [14]) worked out at 3.26 nM; in series [3] (setting [16]) it was 4.88 nM; in [5] (setting [18]), 842 nM; in series [5] (setting [27]) it was 661 nM; in [6] (setting [19]) it was 2.67 nM; in [6] (setting [24]), 2.9 nM. The figures for the IC50 in series [7] (setting [20]) and in series [8] (setting [21]) were 6.62 nM and 5.19 nM, respectively. For the same molecule, the “Tubulin Polym.” value in series [2] (setting [15]) turned out to be 53%; in [2] (setting [22]), 38.9.

On to `C/C1=C\C[C@@H](/C(C)=C/c2csc(C)n2)OC(=O)C[C@H](O)C(C)(C)C(=O)[C@H](C)[C@@H](O)[C@@H](C)/C=C/C1` [trans 9,10, trans 12,13-dehydroepothilone D], for which the IC50 is 95 nM in series [1] (setting [14]); 110 nM in series [3] (setting [16]); 70.4 nM in series [5] (setting [18]); 104 nM in [6] (setting [19]); 147 nM in [7] (setting [20]); 109 nM in [8] (setting [21]). The “Tubulin Polym.” value in series [2] (setting [15]) was 36%. For the same molecule, the “average IC50 for growth inhibition, fold higher than cis 9,10-dehydroepothilone D” value in series [4] (average over the cell line panel) came out at 1.36 fold.
